# Key:
# dephosphorylated BTK = dephosphorylated BTK (Homo sapiens (Human), UniProt Q06187); test: BTK Activity Inhibition Test (mobility shift assay); format: biochemical; settings: 200 μM ATP, read-out: Inhibitory Activity on BTK
# Procedure, shortened: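 Biotinylated human BTK was dephosphorylated with λ phosphatase and assayed by mobility shift, with FITC-SRCtide as substrate in 20 mM HEPES pH 7.5, 0.01% Triton X-100 and 2 mM DTT. The substrate mix held 4 μM substrate, 20 mM MgCl2 and 200 μM ATP, and the enzyme solution held 0.46 nM BTK (stock levels, not final). After 2 h at room temperature, % inhibition was derived from P/(P+S) and IC50 by log-concentration regression.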
# BTK = BTK (Homo sapiens (Human), UniProt Q06187); test: Intracellular BTK Auto-Phosphorylation Activity Inhibition Test in Ramos cells; format: cell-based; settings: test compound 0.03 μM, anti-IgM stimulation, pY223, read-out: Inhibitory Activity on BTK-phosphorization
# BTK, sequence (Q06187 whole entry): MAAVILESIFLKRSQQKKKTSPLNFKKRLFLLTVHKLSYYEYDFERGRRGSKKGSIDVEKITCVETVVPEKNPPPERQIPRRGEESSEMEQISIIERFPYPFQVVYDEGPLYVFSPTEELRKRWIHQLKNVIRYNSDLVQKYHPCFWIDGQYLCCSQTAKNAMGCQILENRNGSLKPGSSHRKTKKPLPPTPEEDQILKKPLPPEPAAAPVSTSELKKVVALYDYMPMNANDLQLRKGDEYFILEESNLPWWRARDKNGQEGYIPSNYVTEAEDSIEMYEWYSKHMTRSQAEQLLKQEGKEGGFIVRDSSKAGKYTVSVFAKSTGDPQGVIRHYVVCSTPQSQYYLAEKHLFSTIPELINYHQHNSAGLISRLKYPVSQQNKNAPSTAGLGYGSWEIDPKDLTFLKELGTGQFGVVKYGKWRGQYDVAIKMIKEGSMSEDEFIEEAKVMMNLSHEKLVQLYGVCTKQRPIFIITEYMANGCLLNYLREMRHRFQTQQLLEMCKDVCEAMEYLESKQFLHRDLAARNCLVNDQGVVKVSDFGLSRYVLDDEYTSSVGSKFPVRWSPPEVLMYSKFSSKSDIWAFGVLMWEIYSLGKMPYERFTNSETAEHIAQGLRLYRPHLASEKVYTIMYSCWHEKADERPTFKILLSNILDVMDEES
# Description: Ramos cells (2G6.4C10, ATCC No. CRL-1923) were cultured in a T75 flask containing RPMI-1640 medium (GIBCO, # A10491-01) supplemented with 10% FBS (AusGene) and 1% penicillin-streptomycin (Nacalai Tesque, Inc.) (hereinafter referred to as growth medium) in a 5% CO2 incubator.
# The cultured Ramos cells were diluted to a cell density of 7.5×10^6 cells/mL with a serum-free RPMI-1640 (hereinafter referred to as medium) and kept at 37° C. for 45 minutes. The cell suspension was dispensed in 1 mL aliquots into 2.0 mL tubes. A 0.03 mM solution of the test substance in DMSO was diluted with the medium to make a 0.09 μM test compound solution, 500 μL of which was then added to the tubes and the incubation was conducted at 37° C. for 1 hour in the presence of the test compound at a final concentration of 0.03 μM. Thereafter, the anti-IgM antibody (Invitrogen, H15100) which had been diluted with the medium was added at a final concentration of 10 μg/mL, and the incubation was conducted at 37° C. for 10 minutes.
# To the pellets obtained by recovering the cells via centrifugation, 100 μL of a lysis buffer [RIPA Buffer(×1)(Cell Signaling Technology, Inc.) supplemented with 1% Phosphatase inhibitor Cacktail 3 (Sigma Corporation, No. P0044), 1% Phosphatase inhibitor Cacktail (Nacalai Tesque, Inc., No. 07575) and 1 mM phenylmethylsulfonyl fluoride (PMSF)] was added and stirred gently and then allowed to stand for 10 minutes. The supernatant was recovered by centrifugation (15,000 rpm, 15 minutes) and the protein level was quantified. The portion was mixed with the SDS-sample buffer, allowed to react for 5 minutes at 95° C. to denature the protein, thereby obtaining a sample solution. Each 5 μL of the sample solutions was applied to each well containing a 5 to 20% gradient acrylamide gel (Nacalai Tesque, Inc., No. 13064-04) and electrophoresis was conducted. Thereafter, iBlot gel transfer system (Life Technologies Corporation) was used to transfer the proteins in the gel onto a PVDF membrane.
# The PVDF membrane after transfer was blocked with 2% ECL prime blocking Reagent (GE Healthcare) and thereafter the reaction was conducted overnight at 4° C. using anti-BTK mouse antibody (BD transduction laboratory, No. 611116) or anti-phosphorylated BTK rabbit antibody (pY223, EPITOMICS, No. 2207-1) as a primary antibody. The unreacted primary antibody was washed with a TBST buffer (10 mM Tris-HCl (pH 7.5), 150 mM NaCl, 0.1% Tween 20) and then the reaction was conducted for 1 hour at room temperature in a TBST buffer supplemented with 2% ECL prime blocking Reagent using HRP-labeled anti-mouse IgG horse antibody (Cell Signaling Technology, No. 7076) or anti-rabbit IgG goat antibody (Cell Signaling Technology, No. 7074) as a secondary antibody. After washing the unreacted secondary antibody with the TBST buffer, Chemi-Lumi One Super (Nacalai Tesque, Inc.) was used to conduct a reaction in accordance with the attached protocol, and then the respective bands as chemiluminescences were detected with a CCD camera (GE Healthcare ImageQuant LAS 500). […] Each phosphorylated BTK band was corrected based on the total BTK.
# The intracellular BTK autophosphorylation inhibiting activity was indicated with the mark “***” when 90% or more, with the mark “**” when 70% or more and less than 90%, and with the mark “*” when 50% or more and less than 70%.
# [1] = target: C481S mutant BTK [BTK(C481S)] (Homo sapiens (Human), UniProt Q06187, C481S); test: C481S Mutant BTK Inhibitory Activity Test (mobility shift assay); format: biochemical; settings: for IC50: C481S mutant BTK, 100 μM ATP; for C481S mutation-resistance: IC50[BTK(C481S)]/IC50[BTK(WT)]
# C481S mutant BTK [BTK(C481S)], sequence (Q06187 whole entry C481S): as the sequence (Q06187 whole entry) above, with C481S counted along it
# Description: (§1) The kinase activity was measured using QuickScout Screening Assist (trademark) MSA (commercially available kit manufactured by Carna Biosciences, Inc.) by mobility shift assay (MSA) method. The substrate of the kinase reaction was an FITC-labeled SRCtide peptide included in the kit. […] The 10 mM solution of the test compound in DMSO was further diluted with DMSO to 10 levels of the concentration (0.00003 mM, 0.0001 mM, 0.0003 mM, 0.001 mM, 0.003 mM, 0.01 mM, 0.03 mM, 0.1 mM, 0.3 mM, 1 mM), each of which was subjected to a 25-fold dilution with the assay buffer to obtain the drug solutions (4% DMSO solutions).
# (§2) 5 μL of the drug solution or a control solution (4% DMSO-assay buffer), 5 μL of the substrate mixture solution, and 10 μL of the enzyme solution were mixed in the wells of a polypropylene 384-well plate and allowed to react at room temperature for 1 hour, and then quenched by adding 60 μL of the termination buffer included in the kit. Subsequently, the quantities of the substrates (S) and the phosphorylated substrate (P) in the reaction solution were measured using LabChip EZ Reader II system (manufactured by Caliper Life Sciences) according to the protocol of the assay kit.
# (§3) The heights of the peaks of the isolated substrate and the phosphorylated substrate were represented as S and P, respectively, and a blank which contained the assay buffer instead of the enzyme solution was also measured.
# (§4) The inhibition rate (%) of the test compound was calculated according to the following equation; Inhibition rate (%)=(1−(C−A)/(B−A))×100 • wherein, A, B and C represent P/(P+S) of the blank well, P/(P+S) of the control well and P/(P+S) of the compound-containing well, respectively.
# (§5) The IC50 value was calculated via a regression analysis of the inhibition rate (%) and the test compound concentration (logarithmic value).
# OCI-Ly10 cells = test: Proliferation-Inhibitory Test Against Diffuse Large-Cell B-Cell Lymphoma OCI-Ly10 Strain; format: cell-based; settings: Homo sapiens, 96 hours, alamarBlue
# Procedure, shortened: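 Proliferation was read by alamarBlue after a 96-hour incubation. Final compound concentrations spanned 0.9 nM to 30000 nM with 0.3% DMSO. Cells were seeded at 20000 per well in IMDM containing 20% fetal bovine serum under 5% CO2.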
# wild type BTK [BTK(WT)] = wild type BTK [BTK(WT)] (Homo sapiens (Human), UniProt Q06187); test: C481S Mutant BTK Inhibitory Activity Test, wild type BTK (mobility shift assay); format: biochemical; settings: 120 μM ATP
# wild type BTK [BTK(WT)], sequence (Q06187 whole entry): as the sequence (Q06187 whole entry) above
# Description: as §1, §2, §3, §4, §5
# dephosphorylated BTK, sequence (Q06187 whole entry): as above
Structure (SMILES),IC50 (dephosphorylated BTK),inhibition at 0.03 µM (BTK),IC50 [1],C481S mutation-resistance [1],IC50 (OCI-Ly10 cells),IC50 (wild type BTK [BTK(WT)])
"Nc1nc(-c2cccc(-n3ccc4cc(C5CC5)cc(F)c4c3=O)c2CO)c2cc(-c3ccccc3)[nH]c2n1 [Example 1, 2-[3-(2-amino-6-phenyl-7H-pyrrolo[2,3-d]pyrimidin-4-yl)-2-(hydroxymethyl)phenyl]-6-cyclopropyl-8-fluoroisoquinolin-1(2H)-one]",< 10 nM,≥ 90%,,,,
"Nc1nc(-c2cccc(-n3ccc4cc(C5CC5)cc(F)c4c3=O)c2CO)c2nc(-c3ccccc3)[nH]c2n1 [Example 2, 2-[3-(2-amino-8-phenyl-9H-purin-6-yl)-2-(hydroxymethyl)phenyl]-6-cyclopropyl-8-fluoroisoquinolin-1(2H)-one]",< 10 nM,≥ 90%,0.99 nM,1.0,68 nM,0.97 nM
"Nc1nc(-c2cccc(-n3ccc4cc(C5CC5)cc(F)c4c3=O)c2CO)c2c(-c3ccccc3)n[nH]c2n1 [Example 3, 2-[3-(6-amino-3-phenyl-1H-pyrazolo[3,4-d]pyrimidin-4-yl)-2-(hydroxymethyl)phenyl]-6-cyclopropyl-8-fluoroisoquinolin-1(2H)-one]",< 10 nM,≥ 90%,,,,
"Nc1nc(-c2cccc(-n3ccc4cc(C5CC5)cc(F)c4c3=O)c2CO)c2cn[nH]c2n1 [Example 5, 2-[3-(6-amino-1H-pyrazolo[3,4-d]pyrimidin-4-yl)-2-(hydroxymethyl)phenyl]-6-cyclopropyl-8-fluoroisoquinolin-1(2H)-one]",< 10 nM,≥ 90%,,,,
"CN1CCN(Cc2ccc(-c3cc4c(-c5cccc(-n6ccc7cc(C8CC8)cc(F)c7c6=O)c5CO)nc(N)nc4[nH]3)cc2)CC1 [Example 8, 2-[3-(2-amino-6-{4-[(4-methylpiperazin-1-yl)methyl]phenyl}-7H-pyrrolo[2,3-d]pyrimidin-4-yl)-2-(hydroxymethyl)phenyl]-6-cyclopropyl-8-fluoroisoquinolin-1(2H)-one]",< 10 nM,≥ 90%,0.43 nM,1.3,4 nM,0.33 nM
"COc1ccccc1-c1cc2c(-c3cccc(-n4ccc5cc(C6CC6)cc(F)c5c4=O)c3CO)nc(N)nc2[nH]1 [Example 14, 2-{3-[2-amino-6-(2-methoxyphenyl)-7H-pyrrolo[2,3-d]pyrimidin-4-yl]-2-(hydroxymethyl)phenyl}-6-cyclopropyl-8-fluoroisoquinolin-1(2H)-one]",< 10 nM,70 to 90%,,,,
"COc1cccc(-c2cc3c(-c4cccc(-n5ccc6cc(C7CC7)cc(F)c6c5=O)c4CO)nc(N)nc3[nH]2)c1 [Example 15, 2-{3-[2-amino-6-(3-methoxyphenyl)-7H-pyrrolo[2,3-d]pyrimidin-4-yl]-2-(hydroxymethyl)phenyl}-6-cyclopropyl-8-fluoroisoquinolin-1(2H)-one]",< 10 nM,≥ 90%,,,,
"COc1ccc(-c2cc3c(-c4cccc(-n5ccc6cc(C7CC7)cc(F)c6c5=O)c4CO)nc(N)nc3[nH]2)cc1 [Example 16, 2-{3-[2-amino-6-(4-methoxyphenyl)-7H-pyrrolo[2,3-d]pyrimidin-4-yl]-2-(hydroxymethyl)phenyl}-6-cyclopropyl-8-fluoroisoquinolin-1(2H)-one]",< 10 nM,≥ 90%,,,,
"Nc1nc(-c2cccc(-n3ccc4cc(C5CC5)cc(F)c4c3=O)c2CO)c2cc(-c3cccnc3)[nH]c2n1 [Example 17, 2-{3-[2-amino-6-(pyridin-3-yl)-7H-pyrrolo[2,3-d]pyrimidin-4-yl]-2-(hydroxymethyl)phenyl}-6-cyclopropyl-8-fluoroisoquinolin-1(2H)-one]",< 10 nM,≥ 90%,,,,
"COc1cccc(-c2nc3c(-c4cccc(-n5ccc6cc(C7CC7)cc(F)c6c5=O)c4CO)nc(N)nc3[nH]2)c1 [Example 18, 2-{3-[2-amino-8-(3-methoxyphenyl)-9H-purin-6-yl]-2-(hydroxymethyl)phenyl}-6-cyclopropyl-8-fluoroisoquinolin-1(2H)-one]",< 10 nM,≥ 90%,,,,
"Nc1nc(-c2cccc(-n3ccc4cc(C5CC5)cc(F)c4c3=O)c2CO)c2nc(-c3cccnc3)[nH]c2n1 [Example 25, 2-{3-[2-amino-8-(pyridin-3-yl)-9H-purin-6-yl]-2-(hydroxymethyl)phenyl]-6-cyclopropyl-8-fluoroisoquinolin-1(2H)-one]",< 10 nM,≥ 90%,,,,
"Nc1nc(-c2cccc(-n3ccc4cc(C5CC5)cc(F)c4c3=O)c2CO)c2cc(-c3ccc(CN4CCOCC4)cc3)[nH]c2n1 [Example 26, 2-(3-{2-amino-6-[4-(morpholinomethyl)phenyl]-7H-pyrrolo[2,3-d]pyrimidin-4-yl}-2-(hydroxymethyl)phenyl)-6-cyclopropyl-8-fluoroisoquinolin-1(2H)-one]",< 10 nM,≥ 90%,,,75 nM,
"N#Cc1ccc(-c2cc3c(-c4cccc(-n5ccc6cc(C7CC7)cc(F)c6c5=O)c4CO)nc(N)nc3[nH]2)cc1 [Example 27, 4-{2-amino-4-[3-(6-cyclopropyl-8-fluoro-1-oxoisoquinolin-2(1H)-yl)-2-(hydroxymethyl)phenyl]-7H-pyrrolo[2,3-d]pyrimidin-6-yl}benzonitrile]",< 10 nM,≥ 90%,,,182 nM,
"Nc1nc(-c2cccc(-n3ccc4cc(C5CC5)cc(F)c4c3=O)c2CO)c2cc(-c3ccsc3)[nH]c2n1 [Example 32, 2-{3-[2-amino-6-(thiophen-3-yl)-7H-pyrrolo[2,3-d]pyrimidin-4-yl]-2-(hydroxymethyl)phenyl}-6-cyclopropyl-8-fluoroisoquinolin-1(2H)-one]",< 10 nM,≥ 90%,,,79 nM,
